Our source for the TGI values is PubChem BioAssay (NCI).

Among the test systems are SF-268 CNS; UACC-257 melanoma; DU-145 prostate; UO-31 renal; 786-0 renal; SR leukemia; K-562 leukemia; SF-539 CNS.
Common to all, as to assay: NCI-60 cell line screen, 48 h

Where “and” joins values, the source holds several entries; their conditions need not be identical. Identical values can stand only once.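 1) Cells in 96-well plates. 2) Compound, 48 h, 5 concentrations. 3) Linear interpolation between surrounding doses. 4) Unreached endpoint = highest concentration. At the TGI there is no net growth.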 A value given as a limit tells only on which side of the number the result lay.

Turning to `COc1ccc(-n2c(C)nc3ccc(NC4OCC(O)C(O)C4O)cc3c2=O)cc1` (centres undefined), the TGI with SF-268 CNS was more than 100 µM; in the test with UACC-257 melanoma, more than 100 µM; with DU-145 prostate, more than 100 µM; in the test on UO-31 renal, more than 100 µM; with 786-0 renal it was more than 100 µM; with SR leukemia, 68.4 µM and 60.4 µM. The TGI with K-562 leukemia is 87.2 µM and 95.1 µM.

Turning to `O=C(N/N=C1/C(=O)c2c3ccccc3cc3cccc1c23)c1cccc(Cl)c1`, the TGI with UACC-257 melanoma, in the test on DU-145 prostate, in the test with 786-0 renal, in the test on SF-539 CNS, in the test with SR leukemia and with K-562 leukemia was more than 100 µM in each case.

Take `CC(C)[Si](OC1=C(C(=O)N(C)c2ccccc2Cl)CCC1)(C(C)C)C(C)C`: the TGI amounted to 33.4 µM with SF-268 CNS; 43.4 µM with UACC-257 melanoma; 44.3 µM with DU-145 prostate; 29.4 µM with UO-31 renal; 48.9 µM in the test on 786-0 renal; 39.5 µM in the test on SF-539 CNS.

In the case of `COC(=NCCC1=CCCCC1)OC`, the TGI in the test on SF-268 CNS, in the test on UACC-257 melanoma, in the test with DU-145 prostate, in the test with UO-31 renal, in the test on 786-0 renal and in the test on K-562 leukemia was more than 100 µM in each case.

Regarding `C=C(C)[C@@]1(O)CCC[C@H]1NC(=O)OC(C)(C)C`, the TGI with SF-268 CNS, with UACC-257 melanoma, in the test on DU-145 prostate, in the test on UO-31 renal and in the test with 786-0 renal was more than 100 µM throughout.

Regarding `C[C@@H](NC(=O)OC1C=CC2(CC1)C(=O)N(C)c1ccccc12)c1cccc2ccccc12` (some centres undefined), the TGI with SF-268 CNS, in the test on UACC-257 melanoma, in the test with DU-145 prostate, in the test with UO-31 renal, in the test on 786-0 renal and in the test with SR leukemia was more than 25 µM each time. In the test on K-562 leukemia, this compound had a TGI of more than 25 µM.

With `Cc1ccc(-n2c(Cn3nnc(-c4cccnc4)n3)nn(C3OC(COC(=O)c4ccccc4)C(OC(=O)c4ccccc4)C3OC(=O)c3ccccc3)c2=S)cc1` (centres undefined), the TGI with SF-268 CNS, in the test on UACC-257 melanoma, in the test with DU-145 prostate, in the test with UO-31 renal, in the test with 786-0 renal and in the test with SF-539 CNS was more than 100 µM in each case. The same compound yielded a TGI in the test on K-562 leukemia of more than 100 µM.

In the case of `COc1ccc(N[C@H](CS(=O)c2ccc(C)cc2)C(F)(F)C(F)(F)F)cc1` (some centres undefined), the TGI with SF-268 CNS, with UACC-257 melanoma, with DU-145 prostate, in the test with UO-31 renal, in the test with 786-0 renal and in the test with SF-539 CNS was more than 100 µM in each case. This compound also gave a TGI in the test on K-562 leukemia of more than 100 µM.

On to `CCN1CC2=C(NC(=S)NC2c2cc(OC)c(OC)c(OC)c2)/C(=C/c2cc(OC)c(OC)c(OC)c2)C1` (centres undefined), for which the TGI in the test on SF-268 CNS is 37.7 µM; with UACC-257 melanoma, more than 100 µM; in the test with DU-145 prostate it was more than 100 µM; in the test with UO-31 renal, 67.7 µM; with 786-0 renal, more than 100 µM; in the test on K-562 leukemia it was 66.3 µM.

As to `CN(C)CCNC(=O)c1cccc2nc3cccc(F)c3nc12`, the TGI came to 19.4 µM in the test with SF-268 CNS; 3.86 µM with UACC-257 melanoma; 12.9 µM in the test on DU-145 prostate; 4.83 µM with UO-31 renal; 24.8 µM with 786-0 renal; 7.7 µM in the test with SF-539 CNS. In addition, the TGI with K-562 leukemia is 12.3 µM.

`Cc1ccc2[nH]c3[nH]c(=O)[nH]c(=O)c3c2c1`: the TGI with SF-268 CNS, in the test with UACC-257 melanoma, with DU-145 prostate, in the test with UO-31 renal, in the test on 786-0 renal and in the test with SF-539 CNS was more than 100 µM in each case. Besides, the TGI in the test on K-562 leukemia was more than 100 µM.

As to `Cc1ccc(CS(=O)(=O)C/N=c2\sc3ccccc3nc2/C=C(\O)c2ccc(Cl)cc2)cc1`, the TGI with SF-268 CNS, with UACC-257 melanoma, with DU-145 prostate, with 786-0 renal, in the test on SF-539 CNS and with SR leukemia was more than 10 µM throughout. Also, the TGI in the test on K-562 leukemia is more than 10 µM.

On to `O=P1(Oc2ccc(Cl)cc2)OCCS1` (centres undefined), for which the TGI in the test on SF-268 CNS, with UACC-257 melanoma, in the test with DU-145 prostate, with UO-31 renal, in the test on 786-0 renal and in the test on SF-539 CNS was more than 100 µM in each case. The compound further yielded a TGI in the test with SR leukemia of more than 100 µM.

For the compound `OCC1OC(n2nc(-c3ccccc3)nc2-c2cnccn2)C(O)C1O` (centres undefined), the TGI in the test with SF-268 CNS, in the test with UACC-257 melanoma, with DU-145 prostate, in the test with UO-31 renal, in the test with 786-0 renal and in the test with SF-539 CNS was more than 100 µM each time. Moreover, the TGI in the test with K-562 leukemia is more than 100 µM.

Consider `COC(=O)C1C2C=CC(C2)N1S(=O)(=O)c1ccccc1` (centres undefined), for which the TGI in the test on SF-268 CNS, in the test on DU-145 prostate, in the test on UO-31 renal, with 786-0 renal, with SF-539 CNS and with K-562 leukemia was more than 100 µM in each case.

Regarding `C#CCOC(=O)C(N)CSSCC(N)C(=O)O` (centres undefined), the TGI in the test with SF-268 CNS, in the test on UACC-257 melanoma, in the test on DU-145 prostate, in the test on UO-31 renal, in the test on 786-0 renal and in the test with SF-539 CNS was more than 100 µM in each case. In the test on SR leukemia, the TGI is more than 100 µM.

As to `CC(C)N=C(NC#N)NS(=O)(=O)c1cnccc1Nc1ccc(Cl)cc1`, the TGI in the test on SF-268 CNS, in the test with UACC-257 melanoma, in the test with DU-145 prostate, with UO-31 renal, with 786-0 renal and in the test with K-562 leukemia was more than 100 µM each time.

For `O=[N+]([O-])c1cccc2nc3ccccc3c(NCCCN3CCOCC3)c12`, the TGI in the test on SF-268 CNS was 0.744 µM; with UACC-257 melanoma it was 0.0527 µM; with DU-145 prostate it was 0.0298 µM; in the test on UO-31 renal, 0.0564 µM; in the test with 786-0 renal, 0.0404 µM; with SF-539 CNS, 0.138 µM.

Regarding `CC(=O)O[C@H]1CC[C@@]2(C)C(=CC[C@@H]3[C@@H]2CC[C@]2(C)C(=N/O)/C(=C/c4ccc([N+](=O)[O-])cc4)C[C@@H]32)C1`, the TGI is more than 100 µM in the test with SF-268 CNS; 1.55 µM in the test with UACC-257 melanoma; 31.4 µM in the test on DU-145 prostate; 26 µM in the test on UO-31 renal; 27.3 µM in the test on 786-0 renal; more than 100 µM in the test with SF-539 CNS. The TGI with K-562 leukemia was more than 100 µM.
